Measured values taken from patent US9028856B2, “Synergistic pesticide compositions” (priority 2008, dated 2015).

Legend:
[1] = test system: Musca domestica, susceptible strain WHO(N); test: Topical insecticide application to houseflies; format: in vivo; conditions: 0.5 μl per fly, % a.i. conc. in acetone, Table 95
Method: Male Musca domestica, susceptible strain WHO(N), or other strains were used.
The flies were anaesthetized with CO2, and ten individuals were positioned (on their back) on a filter paper which was on the top of a carbon dioxide emitting device. […]
Afterwards the insects were transferred into a beaker closed by a gauze lid with a water saturated cotton pad on the top.
At regular intervals, mortality was recorded (cumulatively).

[2] = test system: Musca domestica, susceptible strain WHO(N); test: Contact efficacy against houseflies on filter papers in glass dishes; format: in vivo; conditions: % a.i. conc. in acetone on filter papers, Table 97
Method: Male Musca domestica, susceptible strain WHO(N), were used.
A solution of the active ingredient in acetone was prepared. A concentration row was made. After evaporation of the acetone (30′), the dishes were closed by a glass lid and transferred into the test room. One day later twenty flies, anaesthetized with CO2, are counted into each dish. At regular intervals, knock down was recorded (cumulatively). Each test consisted of one replicate. […]

[3] = test system: susceptible/normal German cockroach (Monheim strain), Blattella germanica; test: Knockdown/mortality of male cockroaches under continuous exposure on treated glazed tile; format: in vivo; conditions: glazed tile; for Average % Knockdown & Mortality after 3 hr / Average % Knockdown & Mortality after 5 hr / Average % Knockdown & Mortality after 24 hr / Average % Knockdown & Mortality after 1 hr: Table 61, German cockroach (Monheim), continuous exposure; for Average % Knockdown & Mortality after 1 hr: adjuvant = Compound A 1% + Compound B 0.5%
How it was run: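 Male cockroaches continuously exposed on treated glazed tile, dried overnight before exposure; at least three replicates. Knockdown/mortality scored at intervals from 5 or 10 min, over runs lasting 20 min to 24 h depending on test.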

[4] = test system: Argentine ant, Linepithema humile; test: Knockdown/mortality of ant workers under continuous exposure on treated glazed tile; conditions: continuous exposure; for Average % Mortality after 15 min: adjuvant = Compound A 1% + Compound B 0.5%
How it was run: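 0.5% AI imidacloprid in acetone, alone or with 0.1, 1.0 or 5.0% additive (benzenepropanoic acid, oleic acid, methyl oleate, methyl linoleate, methyl palmitate or BHA), 1 ml dried overnight on glazed tile (~161 cm^2). Ten workers confined under continuous exposure, water from 3 h; knockdown/mortality scored at intervals and 24 h; ≥3 replicates.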

[5] = test system: housefly, Musca domestica; test: Housefly continuous exposure on treated glazed tile (paper cup arena); format: in vivo; conditions: Table 58, housefly, glazed tile, continuous exposure; for Average % Knockdown & Mortality after 1 hr: adjuvant = Compound A 1% + Compound B 0.5%
From the text: Treatments were allowed to dry overnight. The housefly testing arena consisted of a 16 oz. paper cup where the bottom of the cup was removed and replaced with a piece of standard window screen. Ten adult houseflies (mixed ratio) were placed in each cup and covered with a 4″×5″ index card to prevent escape. Houseflies were continuously exposed to the treatment by inverting the testing arena and sliding the cup from the index card to the treated tile surface. Treatments were replicated a minimum of three times.

[6] = test system: Odorous House ant, Tapinoma sessile; test: Knockdown/mortality of ant workers under continuous exposure on treated glazed tile; format: in vivo; conditions: Table 59, Odorous House ant, glazed tile, continuous exposure; for Average % Knockdown & Mortality after 15 min: adjuvant = Compound A 1% + Compound B 0.5%
How it was run: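 Each tile surface (about 5″×5″) was treated, left to dry overnight and tested in a minimum of three replicates.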

[7] = test system: Red Imported Fire ant (RIFA), Solenopsis invicta; test: as above; format: in vivo; conditions: for Average % Mortality after 1 hr / Average % Mortality after 1.5 hr / Average % Mortality after 2 hr / Average % Mortality after 3 hr / Average % Mortality after 30 min: Table 60, Red Imported Fire ant, continuous exposure; for Average % Mortality after 30 min: adjuvant = Compound A 1% + Compound B 0.5%
From the text: Treatments were allowed to dry overnight. […] Treatments were replicated minimum three times.
(§1) Treatments were allowed to dry overnight. […] Treatments were replicated a minimum of three times.

[8] = test system: bait averse/resistant German cockroach (IHOP strain), Blattella germanica; test: Knockdown/mortality of male cockroaches under continuous exposure on treated glazed tile; format: in vivo; conditions: German cockroach IHOP
Method: Treatments were allowed to dry overnight. […] Treatments were replicated a minimum of three times. Evaluations for cockroach knockdown/mortality were made at various intervals for 1 hour and at 24 hours after exposure.
Treatments were allowed to dry overnight. […] Evaluations for cockroach knockdown/mortality were made at various intervals and at 60 minutes after exposure.
as §1

[9] = Table 57, Argentine ant, glazed tile

Cc1ccc(O)c(-n2nc3ccccc3n2)c1 [0.5% Compound B]
% Mortality after ([1]; 15′): 0%
% Mortality after ([1]; 30′): 0%
% Mortality after ([1]; 1 h): 0%
% Mortality after ([1]; 2 h): 0%
% Mortality after ([1]; 4 h): 0%
% Mortality after ([1]; 1 d): 60%
% knock down after ([2]; 15′): 0%
% knock down after ([2]; 30′): 0%
% knock down after ([2]; 1 h): 0%
% knock down after ([2]; 1.5 h): 0%
% knock down after ([2]; 2 h): 0%
% knock down after ([2]; 3 h): 0%
% knock down after ([2]; 4 h): 0%
% knock down after ([2]; 6 h): 0%
% knock down after ([2]; 1 d): 70%

CC1(C)C(C=C(Br)Br)C1C(=O)OC(C#N)c1cccc(Oc2ccccc2)c1 (stereo not shown) [0.000128% DTM]
% Mortality after ([1]; 15′): 20%
% Mortality after ([1]; 30′): 50%
% Mortality after ([1]; 1 h): 70%
% Mortality after ([1]; 2 h): 70%
% Mortality after ([1]; 4 h): 80%
% Mortality after ([1]; 1 d): 50%

CC1(C)[C@H](C(=O)O[C@H](C#N)c2cccc(Oc3ccccc3)c2)[C@@H]1C=C(Br)Br [0.0000256% DTM]
% Mortality after ([1]; 15′): 10%
% Mortality after ([1]; 30′): 20%
% Mortality after ([1]; 1 h): 30%
% Mortality after ([1]; 2 h): 20%
% Mortality after ([1]; 4 h): 20%
% Mortality after ([1]; 1 d): 60%

CC[S+]([O-])c1c(C#N)nn(-c2c(Cl)cc(C(F)(F)F)cc2Cl)c1N (stereo not shown) [Ethiprole (0.01%)]
Average % Knockdown & Mortality after 3 hr [3]: 0%
Average % Knockdown & Mortality after 5 hr [3]: 7%
Average % Knockdown & Mortality after 24 hr [3]: 13%
Average % Knockdown & Mortality after 1 hr [3]: 0%
Average % Mortality after 10 min ([4]; Table 54, Trial 1, acetone solution on glazed tile): 0%
Average % Mortality after 30 min ([4]; Table 54, Trial 1, glazed tile): 0%
Average % Mortality after 60 min ([4]; Table 54, Trial 1, glazed tile): 0%
Average % Mortality after 90 min ([4]; Table 54, Trial 1, glazed tile): 0%
Average % Mortality after 2 hr ([4]; Table 54, Trial 1, glazed tile): 0%
Average % Mortality after 4 hr ([4]; Table 54, Trial 1, glazed tile, 4 hr): 16%
Average % Mortality after 24 hr ([4]; Table 54, Trial 1, glazed tile): 100%
Average % Mortality after 10 min ([4]; Table 55, Trial 2, glazed tile): 0%
Average % Mortality after 30 min ([4]; Table 55, Trial 2, glazed tile): 0%
Average % Mortality after 60 min ([4]; Table 55, Trial 2, glazed tile): 0%
Average % Mortality after 90 min ([4]; Table 55, Trial 2, glazed tile): 0%
Average % Mortality after 2 hr ([4]; Table 55, Trial 2, glazed tile): 0%
Average % Mortality after 3 hr ([4]; Table 55, Trial 2, glazed tile, 3 hr): 6%
Average % Mortality after 24 hr ([4]; Table 55, Trial 2, glazed tile): 72%
Average % Mortality after 30 min [4, 9]: 0%
Average % Mortality after 45 min [4, 9]: 0%
Average % Mortality after 60 min [4, 9]: 0%
Average % Mortality after 15 min [4, 9]: 0%
Average % Knockdown & Mortality after 3 hr [5]: 0%
Average % Knockdown & Mortality after 5 hr [5]: 0%
Average % Knockdown & Mortality after 7 hr [5]: 3%
Average % Knockdown & Mortality after 24 hr [5]: 100%
Average % Knockdown & Mortality after 1 hr [5]: 0%
Average % Knockdown & Mortality after 30 min [6]: 0%
Average % Knockdown & Mortality after 45 min [6]: 0%
Average % Knockdown & Mortality after 60 min [6]: 0%
Average % Knockdown & Mortality after 2 hr [6]: 3%
Average % Knockdown & Mortality after 15 min [6]: 0%
Average % Mortality after 1 hr ([7]; glazed tile): 0%
Average % Mortality after 1.5 hr ([7]; glazed tile): 0%
Average % Mortality after 2 hr ([7]; glazed tile): 0%
Average % Mortality after 3 hr ([7]; glazed tile): 3%
Average % Mortality after 30 min ([7]; glazed tile): 0%

CC[S+]([O-])c1c(C#N)nn(-c2c(Cl)cc(C(F)(F)F)cc2Cl)c1N (stereo not shown) [Ethiprole (0.1%)]
Average % Knockdown & Mortality after 3 hr [3]: 27%
Average % Knockdown & Mortality after 5 hr [3]: 33%
Average % Knockdown & Mortality after 24 hr [3]: 80%
Average % Knockdown & Mortality after 1 hr [3]: 0%
Average % Mortality after 30 min [4, 9]: 0%
Average % Mortality after 45 min [4, 9]: 0%
Average % Mortality after 60 min [4, 9]: 0%
Average % Mortality after 15 min [4, 9]: 0%
Average % Knockdown & Mortality after 3 hr [5]: 0%
Average % Knockdown & Mortality after 5 hr [5]: 3%
Average % Knockdown & Mortality after 7 hr [5]: 10%
Average % Knockdown & Mortality after 24 hr [5]: 100%
Average % Knockdown & Mortality after 1 hr [5]: 0%
Average % Knockdown & Mortality after 30 min [6]: 0%
Average % Knockdown & Mortality after 45 min [6]: 0%
Average % Knockdown & Mortality after 60 min [6]: 0%
Average % Knockdown & Mortality after 2 hr [6]: 0%
Average % Knockdown & Mortality after 15 min [6]: 0%
Average % Mortality after 1 hr ([7]; glazed tile): 0%
Average % Mortality after 1.5 hr ([7]; glazed tile): 0%
Average % Mortality after 2 hr ([7]; glazed tile): 0%
Average % Mortality after 3 hr ([7]; glazed tile): 10%
Average % Mortality after 30 min ([7]; glazed tile): 0%

CC1(C)C(C=C(Cl)Cl)C1C(=O)OCc1cccc(Oc2ccccc2)c1 (stereo not shown) [permethrin, reference compound]
toxicity / efficacy of the substance alone (summary in words) [8]: very fast acting
toxicity / efficacy of the substance alone (summary in words) ([3]; German cockroach Monheim): effective
toxicity / efficacy of the substance alone (summary in words) ([7]; RIFA, glazed tile): active
time at which near 100% mortality was achieved ([7]; permethrin 0.5% AI with or without adjuvant (FIG. 39)): about 13 minutes
